Where a name gives a salt, the structure may show the parent alone.
Assays:
[1] = target: catalytic domain (JH1, amino acids 826-1132) of human JAK2 (Homo sapiens (Human), UniProt O60674); test: JAK2 LanthaScreen JH1 Binding Assay; settings: JAK2 JH1 1.5 nM, 50 nM fluorescent tracer, 2 hours at 25° C.; read-out: JH1 BIND IC50
Experimental: Example A. JAK2 LanthaScreen JH1 Binding Assay
(§1) JAK2 JH1 binding assay utilizes catalytic domain (JH1, amino acids 826-1132) of human JAK2 expressed as N-terminal FLAG-tagged, biotinylated protein in a baculovirus expression system (Carna Biosciences, Product #08-445-20N). The assay was conducted in black 384-well polystyrene plates in a final reaction volume of 20 μL. JAK2 JH1 (1.5 nM) was incubated with compounds (100 nL serially diluted in DMSO) in the presence of 50 nM Fluorescent JAK2-JH1 Tracer and 0.5 nM Streptavidin-Tb cryptate (Cisbio Part #610SATLB) in assay buffer (50 mM Tris, pH=7.5, 10 mM MgCl2, 0.01% Brij-35, 0.1% BSA, 1 mM EGTA, 5% Glycerol and 5 mM DTT). Non-specific binding was accessed in the presence of 2 mM ATP. After incubation for 2 hours at 25° C., LanthaScreen signals were read on a PHERAstar FS plate reader (BMG LABTECH). Data was analyzed with IDBS XLfit and GraphPad Prism 5.0 software using a four parameter dose response curve to determine IC50 for each compound.

[2] = target: pseudo-kinase domain (JH2, amino-acids 536-812) of human Wild Type JAK2 (Homo sapiens (Human), UniProt O60674, F794H/W659A/W777A); test: JAK2 LanthaScreen JH2-WT Binding Assay; settings: JAK2 JH2-WT 0.145 nM, 50 nM fluorescent tracer, 1 hour at 25° C.; read-out: JH2 BIND WT IC50
pseudo-kinase domain (JH2, amino-acids 536-812) of human Wild Type JAK2, sequence (O60674 536-812 W659A/W777A/F794H): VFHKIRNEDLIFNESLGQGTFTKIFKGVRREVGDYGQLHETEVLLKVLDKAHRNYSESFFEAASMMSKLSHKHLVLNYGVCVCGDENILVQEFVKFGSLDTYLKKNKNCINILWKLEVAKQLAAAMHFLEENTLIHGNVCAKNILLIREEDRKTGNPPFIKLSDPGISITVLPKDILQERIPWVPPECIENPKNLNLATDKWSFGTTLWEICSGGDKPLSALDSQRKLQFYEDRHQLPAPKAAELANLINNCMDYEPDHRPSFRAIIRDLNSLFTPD
Experimental: Example B. JAK2 LanthaScreen JH2-WT Binding Assay
as §1, with “The” for “JAK2 JH1 binding assay utilizes catalytic domain (JH1, amino acids 826-1132) of human JAK2 expressed as N-terminal FLAG-tagged, biotinylated protein in a baculovirus expression system (Carna Biosciences, Product #08-445-20N). The”, “JH2-WT (0.145” for “JH1 (1.5”, “JAK2-JH2” for “JAK2-JH1”, “Tracer (MedChem Express Catalog #HY-102055)” for “Tracer”, “0.25” for “0.5”, “1 hour” for “2 hours”

[3] = target: pseudo-kinase domain (JH2, amino-acids 536-812) of human V617F mutant JAK2 (Homo sapiens (Human), UniProt O60674, F794H/V617F/W659A/W777A); test: JAK2 LanthaScreen JH2-V617F Binding Assay; settings: JAK2 JH2-V617F 0.26 nM, 50 nM fluorescent tracer, 1 hour at 25° C.; read-out: JH2 BIND V617F IC50
pseudo-kinase domain (JH2, amino-acids 536-812) of human V617F mutant JAK2, sequence (O60674 536-812 V617F/W659A/W777A/F794H): as the sequence (O60674 536-812 W659A/W777A/F794H) above, with V82F counted along it
Experimental: The assay was conducted in black 384-well polystyrene plates in a final reaction volume of 20 μL. […] Non-specific binding was accessed in the presence of 2 mM ATP. After incubation for 1 hour at 25° C., LanthaScreen signals were read on a PHERAstar FS plate reader (BMG LABTECH). Data was analyzed with IDBS XLfit and GraphPad Prism 5.0 software using a four parameter dose response curve to determine IC50 for each compound.

[4] = target: catalytic domain (JH1, amino acids 808-1132) of human JAK2 (Homo sapiens (Human), UniProt O60674); test: JAK2 HTRF Enzyme Activity Assay; assay type: biochemical; settings: JAK2 0.015 nM, ATP (30 μM or 1 mM), 60 minutes at 25° C.
catalytic domain (JH1, amino acids 808-1132) of human JAK2, sequence (O60674 808-1132): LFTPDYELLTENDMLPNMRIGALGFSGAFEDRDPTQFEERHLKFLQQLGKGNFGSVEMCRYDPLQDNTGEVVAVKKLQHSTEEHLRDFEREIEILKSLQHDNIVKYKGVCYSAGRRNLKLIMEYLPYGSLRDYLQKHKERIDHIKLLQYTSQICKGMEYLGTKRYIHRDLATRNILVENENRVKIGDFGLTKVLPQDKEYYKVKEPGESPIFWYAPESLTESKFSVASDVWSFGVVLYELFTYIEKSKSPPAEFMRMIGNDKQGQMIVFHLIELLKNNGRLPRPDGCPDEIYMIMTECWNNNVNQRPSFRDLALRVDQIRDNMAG
Experimental: Example D. JAK2 HTRF Enzyme Activity Assay
JAK2 enzyme activity assays utilize catalytic domain (JH1, amino acids 808-1132) of human JAK2 expressed as N-terminal His-tagged protein in a baculovirus expression system (BPS Bioscience, Catalog #40450). The assays was conducted in black 384-well polystyrene plates in a final reaction volume of 20 μL. JAK2 (0.015 nM) was incubated with compounds (100 nL serially diluted in DMSO) in the presence of ATP (30 μM or 1 mM) and 500 nM Biotin-labeled […] (SEQ ID NO.: 1) peptide (BioSource International, custom synthesis) in assay buffer (50 mM Tris, pH=7.5, 10 mM MgCl2, 0.01% Brij-35, 0.1% BSA, 1 mM EGTA, 5% Glycerol and 5 mM DTT) for 60 minutes at 25° C. The reactions were stopped by the addition of 10 μL of detection buffer (50 mM Tris, pH 7.8, 0.5 mg/mL BSA, 150 mM NaCl), supplemented with EDTA, LANCE Eu-W1024 anti-phosphotyrosine (PY20), (PerkinElmer, Catalog #AD0067) and Streptavidin SureLight APC (PerkinElmer Catalog #CR130-100), for a final concentration of 15 mM, 1.5 nM and 75 nM, respectively. HTRF signals were read after 30 minutes incubation at room temperature on a PHERAstar FS plate reader (BMG LABTECH). Data was analyzed with IDBS XLfit and GraphPad Prism 5.0 software using a four parameter dose response curve to determine IC50 for each compound.

catalytic domain (JH1, amino acids 826-1132) of human JAK2, sequence (O60674 826-1132): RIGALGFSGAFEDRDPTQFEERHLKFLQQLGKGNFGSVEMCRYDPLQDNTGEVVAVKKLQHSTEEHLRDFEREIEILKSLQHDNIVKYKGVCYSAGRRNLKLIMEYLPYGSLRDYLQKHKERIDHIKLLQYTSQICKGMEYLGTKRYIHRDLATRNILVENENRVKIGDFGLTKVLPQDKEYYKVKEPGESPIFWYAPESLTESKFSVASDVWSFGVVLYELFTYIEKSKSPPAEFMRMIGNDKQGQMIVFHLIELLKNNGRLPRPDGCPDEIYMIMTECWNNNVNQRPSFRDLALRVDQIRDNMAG

Row | SMILES | IC50 [1] [nM] | IC50 [2] [nM] | IC50 [3] [nM] | IC50 [4] [nM]
1 | CN1C(=O)N(C(C)(C)C)Cc2c1cnc1[nH]c(-c3ccc(CN4CCC(S(C)(=O)=O)CC4)cc3)c(-c3ccc(C(=O)NCC4(C#N)CC4)cc3)c21 [Example 14, 4-(2-(tert-Butyl)-4-methyl-8-(4-((4-(methylsulfonyl)piperidin-1-yl)methyl)phenyl)-3-oxo-2,3,4,7-tetrahydro-1H-pyrrolo[3′,2′:5,6]pyrido[3,4-d]pyrimidin-9-yl)-N-((1-cyanocyclopropyl)methyl)benzamide Trifluoroacetic Acid] | ≤ 100 | ≤ 100 | ≤ 100 | ≤ 100
2 | COC(=O)c1c(-c2ccc(CN3CCC(S(C)(=O)=O)CC3)cc2)[nH]c2ncc3c(c12)CN(c1ccc(C(=O)O)cc1)C(=O)N3C [Example 15, 4-(9-(Methoxycarbonyl)-4-methyl-8-(4-((4-(methylsulfonyl)piperidin-1-yl)methyl)phenyl)-3-oxo-1,3,4,7-tetrahydro-2H-pyrrolo[3′,2′:5,6]pyrido[3,4-d]pyrimidin-2-yl)benzoic acid Trifluoroacetic Acid Salt] | > 2500 | 100 to 500 | 100 to 500 | > 2500
3 | CC(=O)NCc1ccc(-c2c(-c3ccc(CN4CCC(S(C)(=O)=O)CC4)cc3)[nH]c3ncc4c(c23)CN(C(C)(C)C)C(=O)N4C)cc1 [Example 16, N-(4-(2-(tert-Butyl)-4-methyl-8-(4-((4-(methylsulfonyl)piperidin-1-yl)methyl)phenyl)-3-oxo-2,3,4,7-tetrahydro-1H-pyrrolo[3′,2′:5,6]pyrido[3,4-d]pyrimidin-9-yl)benzyl)acetamide] | ≤ 100 | ≤ 100 | ≤ 100 | ≤ 100
4 | CNS(=O)(=O)c1ccc(-c2c(-c3ccc(CN4CCC(S(C)(=O)=O)CC4)cc3)[nH]c3ncc4c(c23)CN(C(C)(C)C)C(=O)N4C)cc1 [Example 17, 4-(2-(tert-Butyl)-4-methyl-8-(4-((4-(methylsulfonyl)piperidin-1-yl)methyl)phenyl)-3-oxo-2,3,4,7-tetrahydro-1H-pyrrolo[3′,2′:5,6]pyrido[3,4-d]pyrimidin-9-yl)-N-methylbenzenesulfonamide, trifluoroacetic acid salt] | ≤ 100 | ≤ 100 | ≤ 100 | ≤ 100
5 | CC(=O)N1CCN(c2ccc(-c3c(-c4ccc(CN5CCC(S(C)(=O)=O)CC5)cc4)[nH]c4ncc5c(c34)CN(C(C)(C)C)C(=O)N5C)cc2)CC1 [Example 18, 9-(4-(4-Acetylpiperazin-1-yl)phenyl)-2-(tert-butyl)-4-methyl-8-(4-((4-(methylsulfonyl)piperidin-1-yl)methyl)phenyl)-1,2,4,7-tetrahydro-3H-pyrrolo[3′,2′:5,6]pyrido[3,4-d]pyrimidin-3-one, trifluoroacetic acid salt] | ≤ 100 | ≤ 100 | ≤ 100 | ≤ 100
6 | CC(=O)N1CC=C(c2c(-c3ccc(CN4CCC(S(C)(=O)=O)CC4)cc3)[nH]c3ncc4c(c23)CN(c2ccc(C(=O)O)cc2)C(=O)N4C)CC1 [Example 20, 4-(9-(1-Acetyl-1,2,3,6-tetrahydropyridin-4-yl)-4-methyl-8-(4-((4-(methylsulfonyl)piperidin-1-yl)methyl)phenyl)-3-oxo-1,3,4,7-tetrahydro-2H-pyrrolo[3′,2′:5,6]pyrido[3,4-d]pyrimidin-2-yl)benzoic acid Trifluoroacetic Acid Salt] | > 2500 | ≤ 100 | ≤ 100 | > 2500
7 | CN1C(=O)N(c2ccc(C(=O)O)cc2)Cc2c1cnc1[nH]c(-c3ccc(CN4CCC(S(C)(=O)=O)CC4)cc3)c(-c3ccc(C4(N)CC4)cc3)c21 [Example 21, 4-(9-(4-(1-Aminocyclopropyl)phenyl)-4-methyl-8-(4-((4-(methylsulfonyl)piperidin-1-yl)methyl)phenyl)-3-oxo-1,3,4,7-tetrahydro-2H-pyrrolo[3′,2′:5,6]pyrido[3,4-d]pyrimidin-2-yl)benzoic acid trifluoroacetic acid salt (1:2)] | 1000 to 2500 | ≤ 100 | ≤ 100 | > 2500
8 | CN1C(=O)N(c2ccc(C(=O)O)cc2)Cc2c1cnc1[nH]c(-c3ccc(CN4CCC(S(C)(=O)=O)CC4)cc3)c(-c3ccn(C)c3)c21 [Example 22, 4-(4-Methyl-9-(1-methyl-1H-pyrrol-3-yl)-8-(4-((4-(methylsulfonyl)piperidin-1-yl)methyl)phenyl)-3-oxo-1,3,4,7-tetrahydro-2H-pyrrolo[3′,2′:5,6]pyrido[3,4-d]pyrimidin-2-yl)benzoic acid trifluoroacetic acid salt] | 1000 to 2500 | ≤ 100 | ≤ 100 | 1000 to 2500
9 | CN1C(=O)N(c2ccc(C(=O)O)cc2)Cc2c1cnc1[nH]c(-c3ccc(CN4CCC(S(C)(=O)=O)CC4)cc3)c(C3CC3)c21 [Example 23, 4-(9-Cyclopropyl-4-methyl-8-(4-((4-(methylsulfonyl)piperidin-1-yl)methyl)phenyl)-3-oxo-1,3,4,7-tetrahydro-2H-pyrrolo[3′,2′:5,6]pyrido[3,4-d]pyrimidin-2-yl)benzoic acid, trifluoroacetic acid salt] | > 2500 | ≤ 100 | ≤ 100 | > 2500
10 | CN1C(=O)N(c2ccc(C(=O)O)cc2)Cc2c1cnc1[nH]c(-c3ccc(CN4CCC(S(C)(=O)=O)CC4)cc3)c(C#N)c21 [Example 24, 4-(9-Cyano-4-methyl-8-(4-((4-(methylsulfonyl)piperidin-1-yl)methyl)phenyl)-3-oxo-1,3,4,7-tetrahydro-2H-pyrrolo[3′,2′:5,6]pyrido[3,4-d]pyrimidin-2-yl)benzoic acid Trifluoroacetic Acid Salt] | > 2500 | 100 to 500 | 100 to 500 | > 2500
11 | CN1C(=O)N(c2ccc(C(=O)O)cc2)Cc2c1cnc1[nH]c(-c3ccc(CN4CCC(S(C)(=O)=O)CC4)cc3)c(I)c21 [Example 25, 4-(9-Iodo-4-methyl-8-(4-((4-(methylsulfonyl)piperidin-1-yl)methyl)phenyl)-3-oxo-1,3,4,7-tetrahydro-2H-pyrrolo[3′,2′:5,6]pyrido[3,4-d]pyrimidin-2-yl)benzoic acid Trifluoroacetic Acid Salt] | 500 to 1000 | ≤ 100 | ≤ 100 | 1000 to 2500
